“Also recorded” adds a separate entry of the source.
Tests used:
[1] = tested on: quinone reductase (QR) activity in mouse hepatoma Hepa1c1c7 cells; test: Induction of quinone reductase (QR) activity; assay type: cell-based; details: Hepa1c1c7 cells, 0.6, 1.7, 5, and 15 μM, 48 hours
Experimental: It has been known that quinone reductase (QR) activity is increased by increasing the expression of NAD(P)H:quinone oxidoreductase (NQO1) by Nrf2 activation (Proc Natl Acad Sci USA. 101, 10446-51 (2004)). Accordingly, isohumulones were allowed to act on mouse hepatoma Hepa1c1c7 cells (available from Dainippon Pharmaceutical Co., Ltd.) to examine whether the QR activity was induced.
The QR activity was measured in accordance with the method described in Analytical Biochemistry 169, 328-336 (1988).
A mouse hepatoma cell line Hepa1c1c7 was seeded on a 96-well plate (7-10×10^3 cells/well), 50 μl each of an α-MEM medium (Invitrogen) supplemented with 10% fetal bovine serum (HyClone) and penicillin-streptomycin (100 units/ml and 100 μg/ml, respectively; Sigma) was added, and the plate was incubated at […] in an atmosphere of 5% CO2 overnight. Next, the culture medium was replaced with a medium containing isomerized hop extract individually at a concentration of 1.9, 5.6, 16.7, or 50 μg/ml, or with a medium containing humulone (H), cohumulone (cH), adhumulone (aH), isohumulone (IH), isohumulone (IcH), or isohumulone (IaH) individually at a concentration of 0.6, 1.7, 5, and 15 μM and the plate was further incubated for 48 hours. Then, the cells in each well were broken using 0.08% digitonin and a 2 mM EDTA solution and absorption at 610 nm was measured by a menadione-formazan system using a microplate reader (Power Wave 200, Bio-Tek Instruments).
The QR inducing activity was calculated as a relative activity setting the activity of cells without addition to be 1 (n=3, mean±standard variation). Sulforaphane (Sul, available from Sigma) was used as a positive control.

[2] = tested on: NAD(P)H:quinone oxidoreductase (NQO1); test: Expression of genes controlled by Nrf2 in RAW264.7: NQO1; assay type: cell-based, mouse; details: RAW264.7, 3 μM, positive control
Experimental: (§1) A mouse macrophage cell line RAW264.7 was seeded on a φ60 mm dish (9×10^5 cells), 2 ml of a D-MEM medium (Invitrogen) supplemented with 10% fetal bovine serum (HyClone) and penicillin-streptomycin (100 units/ml and 100 μg/ml, respectively; Sigma) was added, and the dish was incubated at 37° C. in an atmosphere of 5% CO2 for 2 days. The medium was replaced with a fresh medium containing individual samples and incubation was continued for another 20 hours. Then, the total RNA was prepared using TRIzol (Invitrogen) and purified using a RNeasy Mini kit (Qiagen) and an RNase-free DNase set (Qiagen). Further, cDNA was synthesized from 5 μg of the purified total RNA using a Thermo Script RT-PCR system (Invitrogen), and the amount of mRNA expression of various genes was determined using a FastStart DNA Master SYBR Green I kit (Roche) and a Light Cycler (Roche).
(§2) The amount of expression of the various genes was corrected by the amount of expression of the housekeeping gene PO and calculated as a relative expression level (n=2, mean±standard deviation). […]

[3] = tested on: heme oxygenase 1 (HO1); test: Expression of genes controlled by Nrf2 in RAW264.7: HO1; assay type: cell-based, mouse; details: RAW264.7, 3 μM, positive control
Experimental: as §1, §2

[4] = tested on: thioredoxin reductase 1 (TXNRD1); test: Expression of genes controlled by Nrf2 in RAW264.7: TXNRD1; assay type: cell-based, mouse; details: RAW264.7, 3 μM, positive control
Experimental: as §1, §2

[5] = tested on: glucose-6-phosphate dehydrogenase, X-linked (G6PDX); test: Expression of genes controlled by Nrf2 in RAW264.7: G6PDX; assay type: cell-based, mouse; details: RAW264.7, 3 μM, positive control
Experimental: as §1, §2

[6] = tested on: mouse macrophage cell line RAW264.7; test: Amount of intracellular glutathione; assay type: cell-based; details: RAW264.7, 3 μM, positive control
Experimental: A mouse macrophage cell line RAW264.7 was seeded on a φ60 mm dish (7×10^5 cells), 2 ml of a D-MEM medium (Invitrogen) supplemented with 10% fetal bovine serum (HyClone) and penicillin-streptomycin (100 units/ml and 100 μg/ml, respectively; Sigma) was added, and the dish was incubated at 37° C. in an atmosphere of 5% CO2 for 2 days. The medium was replaced with a fresh medium containing individual samples and incubation was continued for another 20 hours. The samples added were isohumulone (IH(F)) and isohumulone (IcH(G)) at a concentration of 25 μM. The cells were recovered, broken by ultrasonication, and centrifuged to obtain the supernatant, and the amount of the total intracellular glutathione was measured using a glutathione assay kit (Cayman Chemical) (n=2, mean±standard deviation). As a positive control, 15dPGJ2 (Cayman Chemical) was used.

[7] = tested on: CD36; test: Expression of genes controlled by Nrf2 in RAW264.7: CD36; assay type: cell-based, mouse; details: RAW264.7, 3 μM, positive control
Experimental: as §1, §2

[8] = tested on: glucose-6-phosphate dehydrogenase 2 (G6PD2); test: Expression of genes controlled by Nrf2 in RAW264.7: G6PD2; assay type: cell-based, mouse; details: RAW264.7, 3 μM, positive control
Experimental: as §1, §2

[9] = tested on: glutathione S-transferase mu1 (GSTM1); test: Expression of genes controlled by Nrf2 in RAW264.7: GSTM1; assay type: cell-based, mouse; details: RAW264.7, 3 μM, positive control
Experimental: as §1, §2

[10] = tested on: glutamate cysteine ligase modifier subunit (GCLM); test: Expression of genes controlled by Nrf2 in RAW264.7: GCLM; assay type: cell-based, mouse; details: RAW264.7, 3 μM, positive control
Experimental: as §1, §2

[11] = tested on: mouse macrophage cell line RAW264.7; test: Suppressive action on cell death by hydrogen peroxide; assay type: cell-based; details: RAW264.7, 3 μM, positive control
Experimental: A mouse macrophage cell line RAW264.7 (6×10^4 cells/well) was incubated on a 96-well plate in 100 μl of a D-MEM medium (Invitrogen) containing individual samples, 10% fetal bovine serum (HyClone), and penicillin-streptomycin (100 units/ml and 100 μg/ml, respectively; Sigma) at 37° C. in an atmosphere of 5% CO2 overnight. The samples added were isohumulone (IH(F)) and isohumulone (IcH(G)) at a concentration of 25 μM. Hydrogen peroxide (Wako Pure Chemical Industries) was added hereto at a final concentration of 0.8 or 1.0 mM and incubation was continued for another 2 hours. Then, adsorption at 440 nm was measured using a microplate reader (Power Wave 200, Bio-Tek Instruments) with a cell growth reagent WST-1 (Roche Diagnostics). The cell survival rate for each sample was calculated by setting the value without hydrogen peroxide as 100% (n=2, mean±standard variation). As a positive control, 15dPGJ2 (Cayman Chemical) was used.

[12] = tested on: catalase 1 (CAT1); test: Expression of genes controlled by Nrf2 in RAW264.7: CAT1; assay type: cell-based, mouse; details: RAW264.7, 3 μM, positive control
Experimental: as §1, §2

[13] = tested on: glutathione S-transferase pi2 (GSTP2); test: Expression of genes controlled by Nrf2 in RAW264.7: GSTP2; assay type: cell-based, mouse; details: RAW264.7, 3 μM, positive control
Experimental: as §1, §2

[14] = tested on: TNF-α; test: Suppression of TNF-α production by macrophages (TPA and IFN-γ); assay type: cell-based, mouse; details: RAW264.7, TPA 400 nM and IFN-γ 10 units/ml, positive control
Experimental: A mouse macrophage cell line RAW264.7 (4×10^4 cells/well) was seeded on a 96-well plate, […] of a D-MEM medium (Invitrogen) containing each sample, 10% fetal bovine serum (HyClone), and penicillin-streptomycin (100 units/ml and 100 μg/ml, respectively; Sigma) was added, and the plate was incubated at 37° C. in an atmosphere of 5% CO2 for 4 hours. Then 150 μl of a medium containing TPA (phorbol 12-tetradecanoate 13-acetate, Sigma), mouse IFN-γ (interferon-γ, eBioscience), and each sample was added and incubation was carried out for 24 hours. TPA and IFN-γ were added at a final concentration of 400 nM and 10 units/ml, respectively. As samples, isomerized hop extract was added at a concentration of 5, 10, 20, and 30 μ/ml and isohumulone (IH(F)) and isohumulone (IcH(G)) were added individually at a concentration of 5, 10, 20, and 40 μM.
After completing incubation, the amount of TNF-α in the culture fluid was measured using a mouse TNF-α ELISA kit(eBioscience). The amount of TNF-α was expressed as a relative value by setting the value for the control as 100% (n=3, mean±standard variation). As a positive control, 15dPGJ2 (Cayman Chemical) was used.

[15] = tested on: ICAM-1; test: ICAM-1 expression in vascular endothelial cells (HAEC), TNF-α stimulation, flow cytometry; assay type: cell-based, human; details: TNF-α 1.25 ng/ml
Experimental: Normal human aorta endothelial cells (HAEC, available from Cambrex) were cultured in a φ100 mm dish using 10 ml of endothelial cell medium kit-2 (Takara Shuzo) at 37° C. in an atmosphere of 5% CO2. Here, 30 μg/ml isomerized hop extract, 10 μM sulforaphane (Sul), or 10 mM N-acetyl cysteine (NAC) was allowed to act overnight. Next, after stimulating with the addition of human TNF-α (ProSpec-Tany TechnoGene) at a final concentration of 1.25 ng/ml), the cells were detached using a reagent for subculturing (Takara Shuzo) and flow cytometry analysis was carried out. Here, biotin anti-human ICAM antibody or biotin anti-human VCAM antibody (available from eBioscience) was used as a primary antibody and PE conjugated streptavidin (available from eBioscience) was used as a secondary antibody. A flow cytometer used was a FACSort analyzer (Becton Dickinson).

CC(C)=CCC1=C(O)C(O)(CC=C(C)C)C(=O)C(C(=O)C(C)C)=C1O (stereo not drawn) [cohumulone, reference compound]
QR inducing activity [1]: no clear change

CC(C)=CCC(=O)C1(O)C(O)=C(C(=O)CC(C)C)C(=O)C1CC=C(C)C (stereo not drawn) [IH (H), isohumulone]
QR inducing activity [1]: activity was higher in isohumulones having a higher trans form content

CCC(C)C(=O)C1=C(O)C(CC=C(C)C)=C(O)C(O)(CC=C(C)C)C1=O (stereo not drawn) [adhumulone, reference compound]
QR inducing activity [1]: no clear change

CC(C)=CCC(=O)C1(O)C(O)=C(C(=O)CC(C)C)C(=O)C1CC=C(C)C (stereo not drawn) [IH, isohumulone]
QR inducing activity [1]: Concentration-dependent QR inducing activity; also recorded: higher activity than isohumulone (IaH)

CC(C)=CCC(=O)C1(O)C(O)=C(C(=O)C(C)C)C(=O)C1CC=C(C)C (stereo not drawn) [IcH]
QR inducing activity [1]: higher activity than isohumulone (IaH) | QR inducing activity ([1]; listed as ICH): Concentration-dependent QR inducing activity

CC(C)=CCC(=O)C1(O)C(O)=C(C(=O)CC(C)C)C(=O)C1CC=C(C)C (stereo not drawn) [IH (E), isohumulone]
QR inducing activity [1]: activity was higher in isohumulones having a higher trans form content

CCCCC/C=C/C=C1/C(=O)C=C[C@@H]1C/C=C\CCCC(=O)O [15dPGJ2, 15-deoxy-D12,14-prostaglandin J2, reference compound]
expression of NQO1 [2]: augmented the expression | expression of HO1 [3]: augmented the expression | expression of TRNRD1 [4]: augmented the expression | expression of G6PDX [5]: augmented the expression | amount of the total intracellular glutathione [6]: Increased the amount of the total intracellular glutathione | expression of CD36 [7]: augmented the expression | expression of G6PD2 [8]: augmented the expression | expression of GSTM1 [9]: augmented the expression | expression of GCLM [10]: augmented the expression | cell death by hydrogen peroxide (cell survival rate) ([11]; hydrogen peroxide 0.8 mM): suppressed cell death | cell death by hydrogen peroxide (cell survival rate) ([11]; hydrogen peroxide 1.0 mM): suppressed cell death | expression of CAT1 [12]: augmented the expression | expression of GSTP2 [13]: augmented the expression | TNF-α production [14]: concentration-dependently suppressed

C[S+]([O-])CCCCN=C=S (stereo not drawn) [sulforaphane]
expression of ICAM-1 ([15]; 10 μM overnight): Such changes are also recognized

CCC(C)C(=O)C1=C(O)C(O)(C(=O)CC=C(C)C)C(CC=C(C)C)C1=O (stereo not drawn) [IaH]
QR inducing activity [1]: Concentration-dependent QR inducing activity

CC(=O)N[C@@H](CS)C(=O)O [N-acetyl cysteine]
expression of ICAM-1 ([15]; 10 mM overnight): Such changes are also recognized

Reference: US20070248705A1, “Agents for Activating the Transcription Factor Nrf2 and Foods Having Such Function” (KIRIN BEER KABUSHIKI KAISHA, priority 2004, published 2007)
